Strand notation (5' to 3'): a small letter for the sugar, then the base; units joined by * are phosphorothioate-linked, units joined directly phosphodiester-linked; [ ] holds rarer units or linkages, { } end groups; capitals alone tell only the bases. e = 2'-O-(2-methoxyethyl) (MOE); [5mC] = 5-methylcytosine; d = 2'-deoxy (DNA)
How the values were obtained:
[1] = test system: human SMAD7 mRNA; experiment: Antisense inhibition of human SMAD7 mRNA expression in Hep3B cells by 5-10-5 MOE gapmers, single concentration, electroporation, RT-PCR (Example 1, Study 1 and 2); assay type: cell-based
Summary of the method: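 Hep3B cells (20,000/well) electroporated with 5-10-5 MOE gapmer at 5,000 nM or 15,000 nM for approximately 24 h. SMAD7 mRNA quantified by real-time PCR with primer probe set RTS5062 and normalized to RIBOGREEN total RNA. Values are percent inhibition relative to untreated controls.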

[2] = test system: human SMAD7 mRNA; experiment: Dose-dependent inhibition of human SMAD7 mRNA expression in Hep3B cells (Example 3, Study 1 and 2); assay type: cell-based; conditions: electroporation; for % inhibition of SMAD7 mRNA expression: approximately 16 hours; for IC50: Study 1 (312.5-20000 nM)
Summary of the method: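 Hep3B cells, 20,000 per well, electroporated with antisense oligonucleotide at 0.31, 1.25, 5.00 or 20.00 μM (first series) or 0.74, 2.22, 6.67 or 20.00 μM (second series). After ~16 h, SMAD7 mRNA measured by RT-qPCR (RTS5062), normalised to RIBOGREEN total RNA. Percent inhibition vs untreated cells; IC50 derived.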

[3] = electroporation, 15,000 nM antisense oligonucleotide (Study 2), 5-10-5 MOE gapmers targeting SEQ ID NO: 1 and 2
[4] = 312.5 nM, Study 1, relative to untreated control cells
[5] = electroporation, 15,000 nM, approximately 24 hours, relative to untreated control cells, gapmers targeting SEQ ID NO: 1 and 2
[6] = electroporation with 15,000 nM antisense oligonucleotide (Study 2), 5-10-5 MOE gapmers targeting SEQ ID NO: 1 and 2
[7] = Study 2, electroporation with 15,000 nM antisense oligonucleotide, 5-10-5 MOE gapmers targeting SEQ ID NO: 1 and 2

Substance	% inhibition of SMAD7 mRNA expression [1, 3] [%]	% inhibition of SMAD7 mRNA expression [2, 4] [%]	% inhibition of SMAD7 mRNA expression ([2]; 1250.0 nM, Study 1) [%]	% inhibition of SMAD7 mRNA expression ([2]; 5000.0 nM, Study 1) [%]	% inhibition of SMAD7 mRNA expression ([2]; 20000.0 nM, Study 1) [%]	IC50 [2] [µM]	% inhibition of SMAD7 mRNA expression [1, 5] [%]	% Inhibition of SMAD7 mRNA [1, 6] [%]	% inhibition of SMAD7 mRNA expression [1, 7] [%]	% inhibition of SMAD7 mRNA expression [1, 6] [%]
771506 (antisense eG*e[5mC]*eT*e[5mC]*eA*dG*d[5mC]*dT*d[5mC]*dA*d[5mC]*dG*d[5mC]*dT*d[5mC]*eT*eG*eT*e[5mC]*e[5mC]) [compound 771506]	53	54	1	5	44	> 20	–	–	–	–
771509 (antisense eG*eG*e[5mC]*e[5mC]*eT*dG*d[5mC]*dT*d[5mC]*dA*dG*d[5mC]*dT*d[5mC]*dA*e[5mC]*eG*e[5mC]*eT*e[5mC]) [compound 771509]	–	0	0	13	47	> 20	65	–	–	–
771552 (antisense e[5mC]*eT*eT*eG*eG*dA*dT*dT*dT*d[5mC]*dT*dG*d[5mC]*dT*dT*e[5mC]*e[5mC]*e[5mC]*e[5mC]*eT) [compound 771552]	28	2	25	20	45	> 20	–	53	–	–
771556 (antisense e[5mC]*e[5mC]*e[5mC]*eT*eT*d[5mC]*dA*dT*dA*d[5mC]*dA*d[5mC]*dT*dG*dT*eG*eT*eT*eT*eG) [compound 771556]	–	1	0	9	33	> 20	–	–	30	–
771570 (antisense eT*eG*eG*eG*eA*d[5mC]*dT*dG*d[5mC]*dA*dA*dA*d[5mC]*d[5mC]*dT*e[5mC]*eT*e[5mC]*eT*eG) [compound 771570]	60	0	0	43	48	> 20	–	–	–	–
771572 (antisense e[5mC]*eT*eT*eG*eG*dG*dA*d[5mC]*dT*dG*d[5mC]*dA*dA*dA*d[5mC]*e[5mC]*eT*e[5mC]*eT*e[5mC]) [compound 771572]	–	0	10	38	13	> 20	–	–	37	–
771573 (antisense eG*e[5mC]*eT*eT*eG*dG*dG*dA*d[5mC]*dT*dG*d[5mC]*dA*dA*dA*e[5mC]*e[5mC]*eT*e[5mC]*eT) [compound 771573]	–	0	5	24	56	18	65	–	–	–
771574 (antisense e[5mC]*eG*e[5mC]*eT*eT*dG*dG*dG*dA*d[5mC]*dT*dG*d[5mC]*dA*dA*eA*e[5mC]*e[5mC]*eT*e[5mC]) [compound 771574]	–	0	5	36	58	13	–	–	66	–
771581 (antisense eG*eG*eG*eA*e[5mC]*d[5mC]*d[5mC]*d[5mC]*dA*dG*d[5mC]*d[5mC]*dG*d[5mC]*d[5mC]*eA*eG*e[5mC]*eT*eT) [compound 771581]	–	0	0	9	65	19	58	–	–	–
771583 (antisense eT*eG*e[5mC]*eT*e[5mC]*d[5mC]*dT*dG*dG*d[5mC]*dA*dG*d[5mC]*dT*dG*e[5mC]*eT*eG*eG*eG) [compound 771583]	–	0	15	36	59	10	–	–	57	–
771610 (antisense eA*e[5mC]*e[5mC]*eT*eG*dA*dT*dG*dT*d[5mC]*dA*d[5mC]*d[5mC]*dA*dG*eG*eG*e[5mC]*eA*eG) [compound 771610]	–	0	0	37	38	> 20	–	–	–	52

Reference: US10517889B2, “Modulators of SMAD7 expression” (Ionis Pharmaceuticals, Inc., priority 2017, dated 2019)
